# Test results as given in patent publication US20220257635A1, “INJECTABLE NUTRITIONAL SUPPLEMENT” (CHEMVET AUSTRALIA PTY LTD, priority 2019, published 2022).
# Test: Stability storage of the Comparative Example 1 formulation at 5° C. and 40° C. (75% RH), vitamin B12 analysed
# Format: physicochemical
# Settings: in formulation of Table 2; for Vitamin B12 T = 1 month (mg/mL) 5° C.: 1 month at 5° C.; for Vitamin B12 T = 1 month (mg/mL) 40° C.: 1 month at 40° C. (75% RH); for Vitamin B12 T = 0 (mg/mL) 5° C.: T = 0, 5° C. sample; for Vitamin B12 T = 0 (mg/mL) 40° C.: T = 0, 40° C. (75% RH) sample
# Procedure: To the formulation of Table 1, water-soluble disodium Copper EDTA and disodium Zinc EDTA, were successfully added at the rate of 107 g/L and 285 g/L respectively and then topped up with water to the required volume.
# This formulation was sent to Chemical Analysis, and analysed at 0 time and placed on stability storage at 5° C. and 40° C. (75% RH).
substance,measurement,value
Cyanocobalamin,Vitamin B12 T = 1 month (mg/mL) 5° C.,0.23 mg/mL
same,Vitamin B12 T = 1 month (mg/mL) 40° C.,0.14 mg/mL
same,Vitamin B12 T = 0 (mg/mL) 5° C.,0.24 mg/mL
same,Vitamin B12 T = 0 (mg/mL) 40° C.,0.24 mg/mL
Hydroxocobalamin Acetate,Vitamin B12 T = 1 month (mg/mL) 5° C.,0.26 mg/mL
same,Vitamin B12 T = 1 month (mg/mL) 40° C.,0.03 mg/mL
same,Vitamin B12 T = 0 (mg/mL) 5° C.,0.49 mg/mL
same,Vitamin B12 T = 0 (mg/mL) 40° C.,0.49 mg/mL
